Read-outs that look alike come from different tables or passages of the source.
What was measured:
[1] = system: primary peritoneal mouse macrophages (PMM); conditions: PMM IC50 / L. infantum IC50
physchem = conditions: HPLC, Ascentis Express RP Amide column, pH 7.4, eLogD
in vitro [2] = conditions: Swiss, mouse
in vitro [3] = conditions: mouse, microsomes, pH 7.4, MLM CLint, mouse liver microsomes
in vitro [4] = conditions: human
[5] = system: Leishmania infantum MHOM/MA(BE)/67/ITMAP263 intracellular amastigotes; assay: microbe, parasite or virus in culture; conditions: Macrophage, in Mus musculus
[6] = system: Trypanosoma cruzi, Tulahuen CL2, beta-galactosidase strain; assay: microbe, parasite or virus in culture; conditions: MRC5, read-out: T. cruzi Tulahuen C4 (LacZ) IC50
in vitro [7] = conditions: human, microsomes, pH 7.4, HLM CLint, human liver microsomes
[8] = read-out: L. Inf. pIC50, from L. infantum intracellular amastigote IC50 (converted)
[9] = read-out: L. infantum MHOM/MA(BE)/67/ITMAP263 intracellular amastigotes IC50

SMILES	SI (vs PMM) [1]	chromatographic logD (physchem)	IC50 (in vitro [2]) [µM]	microsomal CLint at 0.5 μM (in vitro [3]) [µL/min/mg]	CC50 at 3 days (in vitro [4]) [µM]	IC50 [5, 8] [µM]	IC50 [5, 9] [µM]	IC50 [6] [µM]	microsomal CLint at 0.5 μM (in vitro [7]) [µL/min/mg]
CCN(Cc1ccccc1)S(=O)(=O)c1cc(F)ccc1F [DNDI0003364474]	2	4.2	> 64	705	45.2	33.9	33.9	30.1	205
CONS(=O)(=O)c1cc(Cl)ccc1OC [DNDI0003364475]	1	–	> 64	–	> 64	> 64	> 64	> 64	–
CCN(Cc1ccccc1)S(=O)(=O)c1ccccc1Br [DNDI0003365405]	2	4.2	> 64	235	> 64	33.9	33.9	13.8	88
COCCN(Cc1ccccc1)S(=O)(=O)c1cc(OC)ccc1OC [DNDI0003365566]	31	–	> 64	–	39.4	2.09	2.07	32.8	253
CCN(Cc1ccc(F)cc1)S(=O)(=O)c1cc(Cl)ccc1OC [DNDI0003366065]	3	4.4	> 64	–	59.5	21.9	22	6.88	352
COc1ccc(OC)c(S(=O)(=O)N(C)Cc2ccc(F)cc2)c1 [DNDI0003366066]	5	–	> 64	–	> 64	11.7	11.7	26.7	414
COc1ccc(OC)c(S(=O)(=O)N(CCO)Cc2ccccc2)c1 [DNDI0003366067]	1	2.9	> 64	–	> 64	52.5	52.5	51.2	161
COc1ccc(OC)c(S(=O)(=O)N(Cc2ccc(F)cc2)Cc2ccc(F)cc2)c1 [DNDI0003366069]	119	–	> 64	–	> 64	0.537	0.54	6.35	–
CCN(Cc1ccccc1)S(=O)(=O)c1cc(F)ccc1OC [DNDI0003366070]	6	3.9	> 64	–	49.6	11	11	28.4	383
COc1ccc(F)cc1S(=O)(=O)N(Cc1ccccc1)Cc1ccccc1 [DNDI0003366071]	47	–	> 64	–	> 64	1.38	1.37	6.82	955
O=S(=O)(c1ccccc1OC(F)(F)F)N(Cc1ccccc1)Cc1ccccc1 [DNDI0003366074]	30	–	32	689	> 64	1.07	1.08	6.3	93
COc1ccc(Cl)cc1S(=O)(=O)NCCN(C)C [DNDI0003366089]	1	2.1	> 64	–	> 64	> 64	> 64	> 64	33
COc1ccc(Cl)cc1S(=O)(=O)N(CCN(C)C)Cc1ccccc1 [DNDI0003366090]	7	4	45.2	120	26.7	6.17	6.14	32.7	1190
CC(=O)Nc1ccc(S(=O)(=O)NCc2ccccc2)cc1 [DNDI0003366092]	1	–	> 64	–	> 64	> 64	> 64	> 64	–

Reference: article PMC8126888 (RSC Medicinal Chemistry, 2020)
